Test results as given in the kinase profiling compilation of Christmann-Franck et al. (2016).

Columns and labels:
Experiment in all cases: KINOMEscan competition binding
Conditions in all cases: compound 10.0 µM
ANKK1 (human) = ANKK1 (human) (UniProt Q8NFD2)
BMPR1A (human) = BMPR1A (human) (UniProt P36894)
[1] = tested on: BMX (human), P51813 [V600E]
BRSK1 (human) = BRSK1 (human) (UniProt Q8TDC3)
CDC2L2 (human) = CDC2L2 (human) (UniProt Q9UQ88)
CDK4 CCND3 (human) = CDK4 CCND3 (human) (UniProt P11802+P30281)
CDKL2 (human) = CDKL2 (human) (UniProt Q92772)
DDR1 (human) = DDR1 (human) (UniProt Q08345)
DSTYK (human) = DSTYK (human) (UniProt Q6XUX3)
[2] = tested on: EGFR (human), P00533 [G719C]
[3] = tested on: EGFR (human), P00533 [L858R]
EIF2AK2 (human) = EIF2AK2 (human) (UniProt P19525)
EPHB1 (human) = EPHB1 (human) (UniProt P54762)
EPHB6 (human) = EPHB6 (human) (UniProt O15197)
FGFR3 (human) = FGFR3 (human) (UniProt P22607)
FGFR3 (human), sequence (P22607 whole entry, looked up): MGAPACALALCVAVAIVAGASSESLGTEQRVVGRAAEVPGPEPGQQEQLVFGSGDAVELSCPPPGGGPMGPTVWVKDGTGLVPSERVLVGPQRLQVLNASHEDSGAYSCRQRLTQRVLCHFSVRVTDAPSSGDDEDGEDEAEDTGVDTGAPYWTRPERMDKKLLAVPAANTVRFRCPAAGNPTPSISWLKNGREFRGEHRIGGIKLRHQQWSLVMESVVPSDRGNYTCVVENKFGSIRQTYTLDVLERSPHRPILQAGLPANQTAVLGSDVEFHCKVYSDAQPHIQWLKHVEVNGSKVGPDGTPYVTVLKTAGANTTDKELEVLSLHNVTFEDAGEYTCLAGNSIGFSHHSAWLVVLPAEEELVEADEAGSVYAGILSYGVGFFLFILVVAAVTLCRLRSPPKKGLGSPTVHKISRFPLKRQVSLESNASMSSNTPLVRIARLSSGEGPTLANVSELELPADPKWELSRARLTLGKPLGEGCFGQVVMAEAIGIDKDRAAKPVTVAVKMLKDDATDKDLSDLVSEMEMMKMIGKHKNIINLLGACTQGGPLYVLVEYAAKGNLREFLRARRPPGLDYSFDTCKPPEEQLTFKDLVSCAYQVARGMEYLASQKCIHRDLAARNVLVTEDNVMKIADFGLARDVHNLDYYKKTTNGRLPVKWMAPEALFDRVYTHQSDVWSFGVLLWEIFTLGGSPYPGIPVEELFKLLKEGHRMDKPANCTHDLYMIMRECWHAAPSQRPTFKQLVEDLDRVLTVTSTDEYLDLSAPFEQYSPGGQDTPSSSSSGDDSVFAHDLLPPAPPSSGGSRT

GRK1 (human) = GRK1 (human) (UniProt Q15835)
IRAK4 (human) = IRAK4 (human) (UniProt Q9NWZ3)
IRAK4 (human), sequence (Q9NWZ3 whole entry, looked up): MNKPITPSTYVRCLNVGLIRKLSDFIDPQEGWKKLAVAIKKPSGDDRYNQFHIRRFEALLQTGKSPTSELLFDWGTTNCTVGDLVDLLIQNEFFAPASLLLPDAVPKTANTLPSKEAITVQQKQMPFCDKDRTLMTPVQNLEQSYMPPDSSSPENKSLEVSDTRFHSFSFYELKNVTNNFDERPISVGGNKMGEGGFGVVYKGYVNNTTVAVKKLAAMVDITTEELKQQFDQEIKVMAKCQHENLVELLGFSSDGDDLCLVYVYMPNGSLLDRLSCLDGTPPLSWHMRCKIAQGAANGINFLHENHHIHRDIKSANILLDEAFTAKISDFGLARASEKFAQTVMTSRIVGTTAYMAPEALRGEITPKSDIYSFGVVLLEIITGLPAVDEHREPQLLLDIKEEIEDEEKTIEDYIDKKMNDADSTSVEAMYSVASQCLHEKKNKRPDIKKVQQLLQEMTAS

[4] = tested on: KIT (human), P10721 [D816H]
LCK (human) = LCK (human) (UniProt P06239)
LYN (human) = LYN (human) (UniProt P07948)
MAP2K4 (human) = MAP2K4 (human) (UniProt P45985)
MAP3K12 (human) = MAP3K12 (human) (UniProt Q12852)
MAPK11 (human) = MAPK11 (human) (UniProt Q15759)
MAPK11 (human), sequence (Q15759 whole entry, looked up): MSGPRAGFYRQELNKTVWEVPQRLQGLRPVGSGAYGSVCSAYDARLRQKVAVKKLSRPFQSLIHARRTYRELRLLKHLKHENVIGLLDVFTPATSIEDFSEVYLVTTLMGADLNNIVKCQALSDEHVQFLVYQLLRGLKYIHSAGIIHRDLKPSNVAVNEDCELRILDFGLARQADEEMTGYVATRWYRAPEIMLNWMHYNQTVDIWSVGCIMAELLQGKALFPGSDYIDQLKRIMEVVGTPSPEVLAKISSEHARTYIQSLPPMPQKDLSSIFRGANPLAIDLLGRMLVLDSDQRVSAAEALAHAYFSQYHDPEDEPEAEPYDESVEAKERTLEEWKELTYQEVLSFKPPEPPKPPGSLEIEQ

MAPK13 (human) = MAPK13 (human) (UniProt O15264)
MAPK4 (human) = MAPK4 (human) (UniProt P31152)
MAPK6 (human) = MAPK6 (human) (UniProt Q16659)
MAPK6 (human), sequence (Q16659 whole entry, looked up): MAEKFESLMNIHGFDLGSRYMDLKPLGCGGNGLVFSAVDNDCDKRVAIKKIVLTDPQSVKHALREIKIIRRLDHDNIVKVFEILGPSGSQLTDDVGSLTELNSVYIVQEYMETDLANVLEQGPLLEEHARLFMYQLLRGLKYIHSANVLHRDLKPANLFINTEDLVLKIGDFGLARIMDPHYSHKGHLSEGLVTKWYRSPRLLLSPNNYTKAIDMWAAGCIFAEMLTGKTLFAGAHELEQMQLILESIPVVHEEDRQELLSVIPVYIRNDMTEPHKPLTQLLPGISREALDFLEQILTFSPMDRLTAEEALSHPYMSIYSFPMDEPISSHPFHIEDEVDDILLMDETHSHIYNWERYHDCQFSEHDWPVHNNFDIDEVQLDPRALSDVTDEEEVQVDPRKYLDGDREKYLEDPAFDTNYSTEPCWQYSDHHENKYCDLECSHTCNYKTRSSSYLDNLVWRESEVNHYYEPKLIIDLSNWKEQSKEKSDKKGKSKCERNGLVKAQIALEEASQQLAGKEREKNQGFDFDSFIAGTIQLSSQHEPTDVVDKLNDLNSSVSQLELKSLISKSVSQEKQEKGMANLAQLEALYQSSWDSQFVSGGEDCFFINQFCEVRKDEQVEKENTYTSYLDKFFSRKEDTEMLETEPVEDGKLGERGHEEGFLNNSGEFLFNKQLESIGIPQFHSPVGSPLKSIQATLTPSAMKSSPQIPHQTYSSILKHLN

MAPK8 (human) = MAPK8 (human) (UniProt P45983)
MARK1 (human) = MARK1 (human) (UniProt Q9P0L2)
MERTK (human) = MERTK (human) (UniProt Q12866)
MKNK2 (human) = MKNK2 (human) (UniProt Q9HBH9)
NLK (human) = NLK (human) (UniProt Q9UBE8)
PAK2 (human) = PAK2 (human) (UniProt Q13177)
PAK2 (human), sequence (Q13177 whole entry, looked up): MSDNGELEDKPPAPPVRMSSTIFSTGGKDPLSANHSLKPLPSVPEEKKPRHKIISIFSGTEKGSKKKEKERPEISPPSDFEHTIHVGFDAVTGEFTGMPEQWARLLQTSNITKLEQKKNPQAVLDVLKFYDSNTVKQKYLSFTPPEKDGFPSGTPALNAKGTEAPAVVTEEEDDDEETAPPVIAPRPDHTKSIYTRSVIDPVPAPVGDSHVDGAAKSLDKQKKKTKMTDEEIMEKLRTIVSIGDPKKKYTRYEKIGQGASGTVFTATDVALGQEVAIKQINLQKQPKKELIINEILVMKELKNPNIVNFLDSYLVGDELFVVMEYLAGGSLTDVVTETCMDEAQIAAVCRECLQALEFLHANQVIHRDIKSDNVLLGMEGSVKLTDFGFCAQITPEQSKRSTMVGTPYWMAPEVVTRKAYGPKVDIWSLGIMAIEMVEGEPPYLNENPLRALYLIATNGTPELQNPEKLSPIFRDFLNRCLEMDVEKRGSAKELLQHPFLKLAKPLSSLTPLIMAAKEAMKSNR

PAK3 (human) = PAK3 (human) (UniProt O75914)
PLK4 (human) = PLK4 (human) (UniProt O00444)
SRPK2 (human) = SRPK2 (human) (UniProt P78362)
SRPK2 (human), sequence (P78362 whole entry, looked up): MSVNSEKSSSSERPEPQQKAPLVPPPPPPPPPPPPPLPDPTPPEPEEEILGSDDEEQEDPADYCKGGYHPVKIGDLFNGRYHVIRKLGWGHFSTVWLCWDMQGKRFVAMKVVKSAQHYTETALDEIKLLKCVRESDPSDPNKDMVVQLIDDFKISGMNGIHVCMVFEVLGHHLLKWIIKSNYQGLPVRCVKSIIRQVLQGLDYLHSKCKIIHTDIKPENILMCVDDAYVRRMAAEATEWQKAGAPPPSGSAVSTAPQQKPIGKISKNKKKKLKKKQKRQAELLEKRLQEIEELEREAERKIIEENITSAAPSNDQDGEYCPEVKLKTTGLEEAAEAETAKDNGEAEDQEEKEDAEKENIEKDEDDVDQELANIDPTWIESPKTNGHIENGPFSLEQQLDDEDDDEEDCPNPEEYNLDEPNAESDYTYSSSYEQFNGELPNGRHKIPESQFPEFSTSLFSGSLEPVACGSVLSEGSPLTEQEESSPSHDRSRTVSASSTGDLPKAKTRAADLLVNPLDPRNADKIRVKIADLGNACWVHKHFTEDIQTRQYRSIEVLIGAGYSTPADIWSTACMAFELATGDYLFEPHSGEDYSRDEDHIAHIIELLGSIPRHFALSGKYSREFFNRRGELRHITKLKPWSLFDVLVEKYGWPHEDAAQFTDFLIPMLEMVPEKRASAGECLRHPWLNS

SRPK3 (human) = SRPK3 (human) (UniProt Q9UPE1)
STK10 (human) = STK10 (human) (UniProt O94804)
STK17B (human) = STK17B (human) (UniProt O94768)
STK36 (human) = STK36 (human) (UniProt Q9NRP7)
TTK (human) = TTK (human) (UniProt P33981)

BRSK1 (human), sequence (Q8TDC3 whole entry, looked up): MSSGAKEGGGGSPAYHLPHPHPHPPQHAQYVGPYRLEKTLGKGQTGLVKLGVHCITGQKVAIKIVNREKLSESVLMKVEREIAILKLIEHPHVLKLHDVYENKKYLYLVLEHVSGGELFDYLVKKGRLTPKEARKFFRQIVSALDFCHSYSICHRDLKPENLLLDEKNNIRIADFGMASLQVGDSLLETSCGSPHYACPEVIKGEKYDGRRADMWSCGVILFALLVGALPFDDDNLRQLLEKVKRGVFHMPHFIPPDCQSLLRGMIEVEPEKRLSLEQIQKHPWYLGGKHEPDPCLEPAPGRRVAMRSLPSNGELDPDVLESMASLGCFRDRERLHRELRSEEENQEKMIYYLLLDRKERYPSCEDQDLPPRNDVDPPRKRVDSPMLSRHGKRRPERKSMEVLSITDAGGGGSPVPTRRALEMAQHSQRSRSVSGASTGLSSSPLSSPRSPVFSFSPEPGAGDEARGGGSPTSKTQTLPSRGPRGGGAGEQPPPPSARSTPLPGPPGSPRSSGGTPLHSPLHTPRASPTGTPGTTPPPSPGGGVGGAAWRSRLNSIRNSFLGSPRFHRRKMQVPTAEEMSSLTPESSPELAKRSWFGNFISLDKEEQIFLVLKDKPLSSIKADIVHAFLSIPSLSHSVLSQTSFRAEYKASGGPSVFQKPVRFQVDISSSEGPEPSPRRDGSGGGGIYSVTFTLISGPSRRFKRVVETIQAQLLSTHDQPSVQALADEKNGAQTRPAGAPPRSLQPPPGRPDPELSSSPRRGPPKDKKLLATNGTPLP
BMX (human), P51813 [V600E], sequence (P51813 whole entry, looked up, stated change not applied): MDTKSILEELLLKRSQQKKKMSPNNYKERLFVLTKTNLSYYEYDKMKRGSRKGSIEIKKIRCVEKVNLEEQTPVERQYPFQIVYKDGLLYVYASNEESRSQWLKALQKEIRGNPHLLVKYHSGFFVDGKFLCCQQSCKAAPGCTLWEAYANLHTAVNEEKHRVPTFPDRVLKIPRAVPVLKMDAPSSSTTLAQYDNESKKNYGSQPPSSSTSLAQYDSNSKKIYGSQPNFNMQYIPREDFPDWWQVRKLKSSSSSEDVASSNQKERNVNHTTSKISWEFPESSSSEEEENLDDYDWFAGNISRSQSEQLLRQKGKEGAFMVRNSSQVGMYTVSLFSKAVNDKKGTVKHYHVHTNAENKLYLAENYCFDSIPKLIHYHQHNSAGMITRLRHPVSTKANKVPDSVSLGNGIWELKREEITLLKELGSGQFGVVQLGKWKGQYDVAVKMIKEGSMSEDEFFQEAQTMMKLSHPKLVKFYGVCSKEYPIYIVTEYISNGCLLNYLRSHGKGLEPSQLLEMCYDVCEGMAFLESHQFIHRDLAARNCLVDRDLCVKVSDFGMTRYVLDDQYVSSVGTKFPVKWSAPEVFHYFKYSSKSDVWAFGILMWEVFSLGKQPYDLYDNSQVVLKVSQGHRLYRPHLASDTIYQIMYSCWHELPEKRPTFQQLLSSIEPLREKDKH

Structure (SMILES)	kinase still bound, per cent of control (ANKK1 (human)) [%]	kinase still bound, per cent of control (BMPR1A (human)) [%]	kinase still bound, per cent of control [1] [%]	kinase still bound, per cent of control (BRSK1 (human)) [%]	kinase still bound, per cent of control (CDC2L2 (human)) [%]	kinase still bound, per cent of control (CDK4 CCND3 (human)) [%]	kinase still bound, per cent of control (CDKL2 (human)) [%]	kinase still bound, per cent of control (DDR1 (human)) [%]	kinase still bound, per cent of control (DSTYK (human)) [%]	kinase still bound, per cent of control [2] [%]	kinase still bound, per cent of control [3] [%]	kinase still bound, per cent of control (EIF2AK2 (human)) [%]	kinase still bound, per cent of control (EPHB1 (human)) [%]	kinase still bound, per cent of control (EPHB6 (human)) [%]	kinase still bound, per cent of control (FGFR3 (human)) [%]	kinase still bound, per cent of control (GRK1 (human)) [%]	kinase still bound, per cent of control (IRAK4 (human)) [%]	kinase still bound, per cent of control [4] [%]	kinase still bound, per cent of control (LCK (human)) [%]	kinase still bound, per cent of control (LYN (human)) [%]	other results
CNC(=O)Nc1ccc(-c2nc(N3CC4CCC(C3)O4)c3cnn(C4CCC5(CC4)OCCO5)c3n2)cc1	77	93	100	100	97	92	100	66	100	80	53	100	90	83	83	100	100	86	100	85	kinase still bound, per cent of control (MAP2K4 (human)): 90%; kinase still bound, per cent of control (MAP3K12 (human)): 93%; kinase still bound, per cent of control (MAPK11 (human)): 100%; kinase still bound, per cent of control (MAPK13 (human)): 16%; kinase still bound, per cent of control (MAPK4 (human)): 100%; kinase still bound, per cent of control (MAPK6 (human)): 85%; kinase still bound, per cent of control (MAPK8 (human)): 91%; kinase still bound, per cent of control (MARK1 (human)): 100%; kinase still bound, per cent of control (MERTK (human)): 87%; kinase still bound, per cent of control (MKNK2 (human)): 87%; kinase still bound, per cent of control (NLK (human)): 85%; kinase still bound, per cent of control (PAK2 (human)): 99%; kinase still bound, per cent of control (PAK3 (human)): 99%; kinase still bound, per cent of control (PLK4 (human)): 75%; kinase still bound, per cent of control (SRPK2 (human)): 90%; kinase still bound, per cent of control (SRPK3 (human)): 100%; kinase still bound, per cent of control (STK10 (human)): 99%; kinase still bound, per cent of control (STK17B (human)): 100%; kinase still bound, per cent of control (STK36 (human)): 96%; kinase still bound, per cent of control (TTK (human)): 100%
CC1=C(C(=O)Nc2cc3cn[nH]c3cc2F)C(c2ccc(C(F)(F)F)cc2)CC(=O)N1 (stereo not given)	97	17	87	93	96	77	94	100	69	37	90	76	91	68	81	78	97	69	30	72	kinase still bound, per cent of control (MAP2K4 (human)): 71%; kinase still bound, per cent of control (MAP3K12 (human)): 69%; kinase still bound, per cent of control (MAPK11 (human)): 92%; kinase still bound, per cent of control (MAPK13 (human)): 98%; kinase still bound, per cent of control (MAPK4 (human)): 100%; kinase still bound, per cent of control (MAPK6 (human)): 98%; kinase still bound, per cent of control (MAPK8 (human)): 85%; kinase still bound, per cent of control (MARK1 (human)): 100%; kinase still bound, per cent of control (MERTK (human)): 91%; kinase still bound, per cent of control (MKNK2 (human)): 62%; kinase still bound, per cent of control (NLK (human)): 92%; kinase still bound, per cent of control (PAK2 (human)): 88%; kinase still bound, per cent of control (PAK3 (human)): 36%; kinase still bound, per cent of control (PLK4 (human)): 86%; kinase still bound, per cent of control (SRPK2 (human)): 100%; kinase still bound, per cent of control (SRPK3 (human)): 98%; kinase still bound, per cent of control (STK10 (human)): 100%; kinase still bound, per cent of control (STK17B (human)): 100%; kinase still bound, per cent of control (STK36 (human)): 96%; kinase still bound, per cent of control (TTK (human)): 100%
O=c1[nH]c2ccccc2n1C1CCN(Cc2ccc(-c3nc4cc5[nH]cnc5cc4nc3-c3ccccc3)cc2)CC1	73	77	84	100	100	100	77	86	76	53	53	100	100	69	92	100	80	100	72	72	kinase still bound, per cent of control (MAP2K4 (human)): 94%; kinase still bound, per cent of control (MAP3K12 (human)): 100%; kinase still bound, per cent of control (MAPK11 (human)): 95%; kinase still bound, per cent of control (MAPK13 (human)): 100%; kinase still bound, per cent of control (MAPK4 (human)): 100%; kinase still bound, per cent of control (MAPK6 (human)): 100%; kinase still bound, per cent of control (MAPK8 (human)): 79%; kinase still bound, per cent of control (MARK1 (human)): 97%; kinase still bound, per cent of control (MERTK (human)): 95%; kinase still bound, per cent of control (MKNK2 (human)): 81%; kinase still bound, per cent of control (NLK (human)): 87%; kinase still bound, per cent of control (PAK2 (human)): 74%; kinase still bound, per cent of control (PAK3 (human)): 72%; kinase still bound, per cent of control (PLK4 (human)): 60%; kinase still bound, per cent of control (SRPK2 (human)): 85%; kinase still bound, per cent of control (SRPK3 (human)): 87%; kinase still bound, per cent of control (STK10 (human)): 65%; kinase still bound, per cent of control (STK17B (human)): 89%; kinase still bound, per cent of control (STK36 (human)): 74%; kinase still bound, per cent of control (TTK (human)): 100%
